{"source": "patent US20100260753A1", "about": "“AMINOFLAVONE (NSC 686288) AND COMBINATIONS THEREOF FOR TREATING BREAST CANCER” (priority 2007, published 2010)", "key": {"MCF-7 TAM1 [1]": {"test_system": "MCF-7 TAM1", "experiment": "MTT proliferation assay, MCF-7 TAM1", "format": "cell-based, human", "protocol": "(§1) FIG. 2B depicts an MTT assay (10 days) comparing the sensitivity of parental MCF-7 to aminoflavone and the tamoxifen resistant subclone MCF-7TAM1 to 4-OH tamoxifen (TAM) and aminoflavone respectively. Cells were grown in medium with charcoal-stripped fetal calf serum supplemented with 10 nM E2, estrogen. MCF-7 cells that have become resistant to tamoxifen by either selection (MCF-7TAM1, FIG. 2B), or genetic manipulation (MCF-7Her2-18, Table 1), remain sensitive to aminoflavone. An understanding of how MCF-7 DF203r and MDA-MB-231 differ from MCF-7 in the dynamics and distribution of their AhR and AhR associated signaling complexes may allow the clarification of the basis for aminoflavone sensitivity and resistance.\n(§2) MCF-7Her2-18 is a variant of MCF-7 over-expressing the Her2/neu oncoprotein. As a result, it is resistant to Herceptin® (Shou et al. 2004 “Mechanisms of tamoxifen resistance: increased estrogen receptor-HER2/neu cross-talk in ER/HER2-positive breast cancer.” J Nat Cancer Inst 96: 926-35) and tamoxifen. […] (1999 “A multidrug resistance transporter from human MCF-7 breast cancer cells.” Proc Natl Acad Sci USA. 95: 15665-70.) The IC50s (16-20 nM) and IC100s of aminoflavone (˜300 nM) were nearly identical in MCF-7Her2-18 and parental MCF-7 cells (See Table 1, below). In MCF-7TAM1 cells, which were serum starved and then treated for 10 days with E2 alone, 4-OH-tamoxifen plus E2, and aminoflavone plus E2, the concentration of 4-OH-tamoxifen causing growth inhibition was >10 μM.\n(§3) Table 1 below summarizes the results of the MTT (methyl tetrazolium) tests that were performed to assay cell growth in a panel breast cell lines and their characteristics. Both, MCF-7Her2-18 and MCF-7TAM1 express estrogen receptor. […] The ER(−) cells MDA-MB-231 and MCF10A with nuclear AhR are several log-fold less sensitive to aminoflavone (Table 1, FIG. 4). These observations confirm that aminoflavone is valuable in patients who have lost clinical benefit from estrogen receptor antagonists. […]"}, "MCF-7 cells": {"test_system": "MCF-7 cells", "experiment": "aminoflavone combination with estrogen receptor antagonists in MCF-7 cells", "format": "cell-based, human", "settings": "administered with aminoflavone (FIG. 9)", "protocol": "To examine the role of estrogen receptor in aminoflavone sensitivity, the inventors combined aminoflavone with a fixed concentration (100 nM) of the “pure” antiestrogen Faslodex® in MCF-7 cells."}, "MDA-MB-231 [2]": {"test_system": "MDA-MB-231", "experiment": "MTT proliferation assay, MDA-MB-231", "format": "cell-based, human", "protocol": "(§4) FIG. 2A depicts in vitro MTT proliferation assay (5 days) showing aminoflavone activity in ER(+) and ER(−) breast cancer cell lines.\n(§5) Table 1 below summarizes the results of the MTT (methyl tetrazolium) tests that were performed to assay cell growth in a panel breast cell lines and their characteristics. Both, MCF-7Her2-18 and MCF-7TAM1 express estrogen receptor. […] The ER(−) cells MDA-MB-231 and MCF10A with nuclear AhR are several log-fold less sensitive to aminoflavone (Table 1, FIG. 4). These observations confirm that aminoflavone is valuable in patients who have lost clinical benefit from estrogen receptor antagonists.\n(§6) The inhibitory concentrations 50% (IC50) and 100% (IC100) listed in Table 1 represent the mean of three independent experiments. The estrogen receptor and AhR assays were performed three times."}, "MCF-7 xenografts": {"test_system": "MCF-7 xenografts", "settings": "120 mg/kg intraperitoneally, 5 days per week; cited from earlier work"}, "MCF-7DF203r": {"test_system": "MCF-7DF203r", "experiment": "MTT proliferation assay (5 days), MCF-7DF203r", "format": "cell-based, human", "settings": "MTT 5 days; MCF-7 subclone with acquired resistance to benzothiazoles (DF203)", "text": "(Loaiza-Pérez et al.; Leong et al.) Isogenic subclones of MCF-7 resistant to the BZ DF203F (MCF-7DF203r), tamoxifen (MCF-7TAM1, MCF-7Her2-18) and Herceptin® (MCF-7Her2-18) were included.\nas §4"}, "MCF-7 [3]": {"test_system": "MCF-7", "experiment": "γ-H2AX foci induction, MCF-7", "format": "cell-based, human", "settings": "IC50 concentrations, 24 hrs after exposure", "text": "(§7) Previous studies have reported that the occurrence of foci of phosphorylated γ-H2AX is indicative of the cellular response to aminoflavone in MCF-7 cells (Meng et al.). γ-H2AX phosphorylation is an early indicator of DNA double strand breaks and thus, induction of DNA-damage response in cells.\n(§8) Phosphorylation of the histone variant γ-H2AX is a rapid and sensitive response to DNA double strand breaks. Aminoflavone induces γ-H2AX foci in drug sensitive MCF-7 and MCF-7TAM1 cells at IC50 concentrations 24 hrs after exposure, but not in aminoflavone resistant MDA-MB-231 breast cancer cells. γ-H2AX was detected by using a FITC-labeled anti-mouse secondary antibody (green) and its nuclear expression is shown by co-localization with the nuclear stain DAPI (blue). AhR was detected with a TRITC-labeled (red) secondary antibody."}, "MCF-7 HER2-18 [4]": {"test_system": "MCF-7 HER2-18", "experiment": "MTT proliferation assay, MCF-7 HER2-18", "format": "cell-based, human", "settings": "mean of three independent experiments", "protocol": "as §1, §2, §3"}, "ER+MDA-MB-231 cells": {"test_system": "ER+MDA-MB-231 cells", "experiment": "aminoflavone sensitivity of MDA-MB-231 stably transfected with human estrogen receptor-α", "format": "cell-based"}, "T47D [5]": {"test_system": "T47D", "experiment": "MTT proliferation assay, T47D", "format": "cell-based, human", "protocol": "as §4, §5, §6"}, "NCI 60 cell line": {"test_system": "NCI 60 cell line", "settings": "\"resistant\" cell lines; cited from earlier work"}, "Hs578T": {"test_system": "Hs578T", "experiment": "aminoflavone sensitivity of Hs578T (FIGS. 6A and 6B)", "format": "cell-based, human"}, "MDA-MB-231 [6]": {"test_system": "MDA-MB-231", "experiment": "γ-H2AX foci induction, MDA-MB-231", "format": "cell-based, human", "text": "as §7, §8"}, "MCF-7 TAM1 [7]": {"test_system": "MCF-7 TAM1", "experiment": "γ-H2AX foci induction, MCF-7 TAM1", "format": "cell-based, human", "settings": "IC50 concentrations, 24 hrs after exposure", "text": "as §7, §8"}, "MCF10A [8]": {"test_system": "MCF10A", "experiment": "MTT proliferation assay, MCF10A", "format": "cell-based, human", "protocol": "as §5, §6"}, "MCF-7 [9]": {"test_system": "MCF-7", "experiment": "MTT proliferation assay, MCF-7", "format": "cell-based, human", "protocol": "as §4, §1, §5, §6"}, "MCF10A [10]": {"test_system": "MCF10A", "experiment": "γ-H2AX foci induction, MCF10A", "format": "cell-based, human"}, "T47D [11]": {"test_system": "T47D", "experiment": "γ-H2AX foci induction, T47D", "format": "cell-based, human"}, "LTLC": {"test_system": "LTLC", "experiment": "growth inhibition in hormone refractory LTLC (FIGS. 5A and 5B)", "format": "cell-based, human", "settings": "LTLC hormone refractory cell line"}, "MCF-7 HER2-18 [12]": {"test_system": "MCF-7 HER2-18", "experiment": "γ-H2AX foci induction, MCF-7 HER2-18", "format": "cell-based, human"}, "[13]": {"settings": "MCF-7, MTT, mean of three independent experiments"}}, "note": "pIC50: −log10 of the molar value. Several values for one entry are separate records, joined by “and”; a condition that tells them apart may be missing. Identical values can stand only once. Like-named read-outs stand apart in the source and are kept apart here.", "data": [{"molecule": "CC/C(=C(\\c1ccc(O)cc1)c1ccc(OCCN(C)C)cc1)c1ccccc1", "note": "[4-OH-tamoxifen, reference compound]", "values": [{"measurement": "concentration causing growth inhibition", "setting": "MCF-7 TAM1 [1]; MCF-7TAM1, serum starved, 10 days, plus E2", "result": "> 10", "unit": "µM"}]}, {"molecule": "C[C@]12CC[C@@H]3c4ccc(O)cc4C[C@@H](CCCCCCCCC[S+]([O-])CCCC(F)(F)C(F)(F)F)[C@H]3[C@@H]1CC[C@@H]2O", "note": "(stereo partly drawn) [Faslodex®, fulvestrant]", "values": [{"measurement": "cell growth inhibition compared to aminoflavone alone", "setting": "MCF-7 cells", "result": "inhibited more greatly"}]}, {"molecule": "Cc1c(F)c(N)c2c(=O)cc(-c3ccc(N)c(F)c3)oc2c1F", "note": "[aminoflavone]", "values": [{"measurement": "IC100", "setting": "MDA-MB-231 [2]; MTT", "result": ">100", "unit": "µM"}, {"measurement": "sensitivity to aminoflavone", "setting": "MDA-MB-231 [2]; MTT 5 days (FIG. 2A)", "result": "refractoriness"}, {"measurement": "tumor growth inhibition", "setting": "MCF-7 xenografts", "result": "85 % of control"}, {"measurement": "sensitivity to aminoflavone", "setting": "MCF-7DF203r", "result": "essentially completely cross-resistant"}, {"measurement": "γ-H2AX Focl", "setting": "MCF-7 [3]", "result": "induces and yes"}, {"measurement": "pIC50", "setting": "MCF-7 TAM1 [1]; Homo sapiens, MCF7:TAM1, 240 h, MCF-7 TAM1, MTT 10 days, plus E2", "result": 6.26}, {"measurement": "IC100", "setting": "MCF-7 TAM1 [1]; MCF-7 TAM1, MTT", "result": 2, "unit": "µM"}, {"measurement": "pIC50", "setting": "MCF-7 HER2-18 [4]; Homo sapiens", "result": "7.70 to 7.80"}, {"measurement": "pIC50", "setting": "MCF-7 HER2-18 [4]", "result": 7.70}, {"measurement": "IC100", "setting": "MCF-7 HER2-18 [4]", "result": "~300 nM and 375 nM"}, {"measurement": "sensitivity compared to parental and vector transfected cells", "setting": "ER+MDA-MB-231 cells; ER+MDA-MB-231 vs parental and vector transfected cells", "result": 5, "unit": "times"}, {"measurement": "pIC50", "setting": "ER+MDA-MB-231 cells; MDA-MB-231 stably transfected with human estrogen receptor-α", "result": 5.30}, {"measurement": "pIC50", "setting": "T47D [5]; Homo sapiens, MTT", "result": 7.85}, {"measurement": "IC100", "setting": "T47D [5]; MTT", "result": 20, "unit": "nM"}, {"measurement": "sensitivity to aminoflavone", "setting": "T47D [5]; MTT 5 days (FIG. 2A)", "result": "pronounced susceptibility"}, {"measurement": "total growth inhibition (TGI)", "setting": "NCI 60 cell line", "result": "≥ 10", "unit": "µM"}, {"measurement": "sensitivity to aminoflavone", "setting": "Hs578T", "result": "resistant"}, {"measurement": "γ-H2AX Focl", "setting": "MDA-MB-231 [6]", "result": "no"}, {"measurement": "γ-H2AX Focl", "setting": "MCF-7 TAM1 [7]", "result": "induces and yes"}, {"measurement": "pIC50", "setting": "MCF10A [8]", "result": 5.52}, {"measurement": "IC100", "setting": "MCF10A [8]", "result": 9, "unit": "µM"}, {"measurement": "pIC50", "setting": "MCF10A [8]; Homo sapiens, MCF-10A", "result": "4.60 to 5.52"}, {"measurement": "pIC50", "setting": "MCF-7 [9]; Homo sapiens, MCF7, MCF-7, MTT, mean of three independent experiments", "result": "7.70 to 7.80"}, {"measurement": "sensitivity to aminoflavone", "setting": "MCF-7 [9]; MCF-7, MTT 5 days (FIG. 2A)", "result": "pronounced susceptibility"}, {"measurement": "pIC50", "setting": "MCF-7 [9]; [13]", "result": 7.80}, {"measurement": "IC100", "setting": "MCF-7 [9]; [13]", "result": "~300", "unit": "nM"}, {"measurement": "γ-H2AX Focl", "setting": "MCF10A [10]", "result": "no"}, {"measurement": "γ-H2AX Focl", "setting": "T47D [11]", "result": "yes"}, {"measurement": "tumor growth inhibition", "setting": "LTLC", "result": "inhibits tumor growth"}, {"measurement": "γ-H2AX Focl", "setting": "MCF-7 HER2-18 [12]", "result": "yes"}]}, {"molecule": "CC/C(=C(\\c1ccccc1)c1ccc(OCCN(C)C)cc1)c1ccccc1", "note": "[tamoxifen]", "values": [{"measurement": "cell growth inhibition compared to aminoflavone alone", "setting": "MCF-7 cells", "result": "inhibited more greatly"}]}]}
